Measured values as given in PMC6213020, “Identification of a Novel PPAR-γ Agonist through a Scaffold Tuning Approach” (International Journal of Molecular Sciences, 2018).
Like-named read-outs stand apart in the source and are kept apart here.

Columns and labels:
PPAR-α = biological target: T1, PPAR-α (Homo sapiens, UniProt Q07869); test: cell-based PPAR transactivation (luciferase) assay, PPAR-α; details: 24 h; compounds 10 µM; relative to maximum activation with GW7647 (10 µM); PPAR-Luc in CV-1 cells; read-out: % max PPAR-α
T1 construct: host or cells: CV-1
T1 sequence (Q07869 1-468): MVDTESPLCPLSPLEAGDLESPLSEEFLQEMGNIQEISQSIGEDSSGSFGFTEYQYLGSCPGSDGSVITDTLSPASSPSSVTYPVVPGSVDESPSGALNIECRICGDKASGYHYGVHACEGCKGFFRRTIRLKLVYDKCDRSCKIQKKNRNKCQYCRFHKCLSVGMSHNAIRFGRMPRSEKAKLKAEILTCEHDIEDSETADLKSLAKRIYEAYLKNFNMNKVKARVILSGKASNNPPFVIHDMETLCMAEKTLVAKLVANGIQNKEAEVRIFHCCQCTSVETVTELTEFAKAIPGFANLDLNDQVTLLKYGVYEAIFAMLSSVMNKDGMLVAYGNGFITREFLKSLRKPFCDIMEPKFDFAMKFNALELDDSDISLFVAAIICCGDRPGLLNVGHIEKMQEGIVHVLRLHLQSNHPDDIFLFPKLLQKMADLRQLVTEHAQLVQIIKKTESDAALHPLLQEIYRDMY
Protocol: The PPAR activities of the synthesized dichloroanilide-linked indole analogs were assessed using a standard cell-based transactivation assay in CV-1 cells. GW7647 [42], pioglitazone, and GW0742 [43] were used as positive controls for PPAR-α, -γ, and -δ, respectively. These three positive controls presented the maximum activation for each PPAR subtype. The activity of the compounds was presented as the activation percentage (%) relative to the maximum values of the positive controls at the indicated concentrations.
Transient transfection and luciferase assay was carried out. CV-1 cells were seeded in 48-well plates at a density of 1.5 × 10^5 cells/well in Dulbecco’s modified Eagle’s medium (DMEM) with containing 10% fetal bovine serum (FBS). The cells were transiently transfected with plasmid mixtures containing PPAR-α/γ expression vector and tk-PPRE-luciferase (Luc) vector for 6 h and then treated with the samples for 24 h. HEK293t cells were seeded in a 60-mm dish at a density of 1.5 × 10^6 cells/dish. After transfection with the plasmid mixtures containing PPAR-δ expression vector and Luc vector for 6 h, the cells were transferred to a 96-well plate and treated with the samples. To normalize the transfection efficiency, a β-galactosidase plasmid was cotransfected. The luciferase activity in the cell lysates was measured using a luciferase assay system (Promega Corp., Madison, WI, USA), and the β-galactosidase activity was determined by measuring the absorbance at 410 nm using an ELISA plate reader. The data were expressed as the relative luciferase activity divided by the β-galactosidase activity. All constructs were kindly gifted by Dr. Ronald M. Evans at The Salk Institute (La Jolla, CA, USA).

PPAR-γ = biological target: T2, PPAR-γ (Homo sapiens, UniProt P37231); test: TR-FRET LanthaScreen PPAR coactivator recruit assay, PPAR-γ (TRAP220/DRIP2 peptide); type: biochemical; details: for EC50: TR-FRET coactivator recruit assay
T2 construct: purchased Invitrogen / Thermo Fisher Scientific (assay service)
T2 sequence (P37231 238-503 limits assumed): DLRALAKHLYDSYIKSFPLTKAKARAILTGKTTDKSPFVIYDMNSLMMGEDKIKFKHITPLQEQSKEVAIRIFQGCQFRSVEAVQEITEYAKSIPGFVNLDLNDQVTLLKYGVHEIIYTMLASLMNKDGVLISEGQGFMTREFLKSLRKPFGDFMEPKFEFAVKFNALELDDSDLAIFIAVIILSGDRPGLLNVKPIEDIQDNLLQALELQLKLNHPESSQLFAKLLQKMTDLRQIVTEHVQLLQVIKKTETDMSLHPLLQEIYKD
Source text: (§1) Binding of agonist to the PPAR LBD causes a conformational change around helix 12 in the LBD, resulting in higher affinity for the coactivator peptide. When the terbium label on the anti-GST antibody complexed with PPAR is excited at 340 nm, energy is transferred to the fluorescein label on the coactivator peptide and detected as emission at 520 nm. […] Based on the biology of the PPAR-coactivator peptide interaction, this ligand EC50 is a composite value representing the amount of ligand required to bind to receptor, effect a conformational change, and recruit coactivator peptide. Potency of compounds show similar order to their activity (Table 3). […] Ligands such as TZDs show little or no binding to PPAR-δ. Compound 11 and 15 have ortho or meta substituted benzoic acid as an acidic head group. Their acidic head groups might seem to be too large to fit within the narrow PPAR-δ pocket. In contrast, the compound 1 and 2 contains an acetic acid head group that complements the narrow PPAR-δ ligand binding. […] The potency and selectivity of compound 11 could be explained by harmonization of steric effect of acidic head group, length and rigidity of hydrophobic tail, and properly tuned aromatic linker system.
(§2) EC50 of compounds were determined by recruitment of transcriptional coactivators using the TR-FRET based Lanthascreen coactivator assays (Invitrogen, Carlsbad, CA, USA). Which was serviced by Thermo Fisher Scientific (Medicon, WI, USA) according to the LanthaScreen TR-FRET coregulator protocol and assay conditions. Coregulator peptide PGC1a, TRAP220/DRIP2 and C33 was used for the coactivator recruit assay of PPAR-α, -γ, and -δ, respectively.

PPAR-δ = biological target: T3, PPAR-δ (Homo sapiens, UniProt Q03181); test: TR-FRET LanthaScreen PPAR coactivator recruit assay, PPAR-δ (C33 peptide); type: biochemical
T3 construct: purchased Invitrogen / Thermo Fisher Scientific (assay service)
T3 sequence (Q03181 211-439 limits assumed): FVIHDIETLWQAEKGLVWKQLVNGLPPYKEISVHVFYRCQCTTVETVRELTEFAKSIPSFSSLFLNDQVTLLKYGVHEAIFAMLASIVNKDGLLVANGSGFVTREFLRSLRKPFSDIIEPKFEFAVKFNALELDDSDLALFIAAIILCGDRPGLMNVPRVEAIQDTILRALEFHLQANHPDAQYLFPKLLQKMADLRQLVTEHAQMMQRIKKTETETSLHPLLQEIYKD
Source text: as §1, §2

Structure (SMILES) | activation at 10 µM (PPAR-α) [%] | EC50 (PPAR-γ; read-out: EC50 PPAR-γ) [nM] | EC50 (PPAR-δ) [nM] | EC50 (PPAR-γ; read-out: EC50 to PPAR-γ) [nM] | selectivity for PPAR-γ to PPAR-α (PPAR-γ; from coactivator recruit EC50) | selectivity for PPAR-γ to PPAR-δ (PPAR-γ; from coactivator recruit EC50)
O=C(COc1ccc2c(c1)c(Cc1ccccc1)cn2Cc1ccccc1C(=O)O)Nc1ccc(Cl)cc1Cl [Compound 18, 2-((3-Benzyl-5-(2-((2,4-dichlorophenyl)amino)-2-oxoethoxy)-1H-indol-1-yl)methyl)benzoic acid] | 23.79 ± 0.11 | > 11100 | 28100 |  |  | 
O=C(COc1ccc2ccn(Cc3cccc(C(=O)O)c3)c2c1)Nc1ccc(Cl)cc1Cl [Compound 15, 3-((6-(2-((2,4-Dichlorophenyl)amino)-2-oxoethoxy)-1H-indol-1-yl)methyl)benzoic acid] | 78.15 ± 0.04 | 32.6 | > 100000 | 32.3 |  | 
O=C(COc1ccc2c(ccn2Cc2ccccc2C(=O)O)c1)Nc1ccc(Cl)cc1Cl [Compound 12, 2-((5-(2-((2,4-Dichlorophenyl)amino)-2-oxoethoxy)-1H-indol-1-yl)methyl)benzoic acid] | 105.1 ± 0.41 | 1.96 | 32600 |  | 1,970 fold | 16,600 fold
O=C(COc1ccc2ccn(Cc3ccccc3C(=O)O)c2c1)Nc1ccc(Cl)cc1Cl [Compound 13, 2-((6-(2-((2,4-Dichlorophenyl)amino)-2-oxoethoxy)-1H-indol-1-yl)methyl)benzoic acid] | 51.84 ± 0.25 | 571 | > 100000 |  |  | 
